# Test results: PMC6315362, “Cytotoxic Potential of the Novel Horseshoe Crab Peptide Polyphemusin III” (Marine Drugs, 2018)
# Where a SMILES comes first, the peptide text is derived from it. Bridges are numbered along the chain shown (N, C = ends).
# Columns and labels:
# HL-60 cells = assay: Lactate dehydrogenase (LDH)-release assay; type: cell-based, human; details: HL-60, 1 h of incubation, 1.56–25 μM, RPMI serum-free medium; two independent series of triplicated experiments
# Description: The loss of membrane integrity, detected by trypan blue exclusion assay and annexin V-FITC/propidium iodide double staining, was also evaluated by lactate dehydrogenase (LDH)-release. The cytosolic enzyme LDH is released upon cell lysis and therefore can be a marker of cell integrity. The percentage of LDH-leakage from cells enables evaluation of direct cell lysis.
# The LDH-release assay (CytoTox 96 Non-Radioactive Cytotoxicity Assay; Promega Corporation, Madison, WI, USA) was performed according to the manufacturer’s protocol. Suspension HL-60 cells (4 × 10^4) were seeded into a 96-well plate in triplicate and incubated for 1 h with various concentrations of polyphemusin III at 100 μL per well in RPMI serum-free medium. Untreated cells served as a control for spontaneous LDH-release and cells treated with 1% Triton X-100 were used as a control for maximal LDH-release. Absorbance was measured at 490 nm using a microplate reader (Eppendorf, Hamburg, Germany). Percent LDH-release was calculated using the following Equation (2):[(experimental LDH-release − spontaneous LDH-release)/(maximal LDH-release − spontaneous LDH-release)] × 100(2)
# The dose response curve shown is an average of two independent experiments.
# [1] = system: Gram-positive and Gram-negative bacteria; assay: Antimicrobial assay, MIC summarised over the panel of strains; type: cell-based; details: E. coli ML35p, K. pneumoniae (CI 287) and S. aureus 209P
# Description: Bacterial test cultures were grown in the Mueller-Hinton (MH) medium at 37 °C to mid-log phase and then diluted with the 2 x MH medium supplemented with 1.8% NaCl. 50 µL of the bacterial suspension with a final cell concentration of 10^6 CFU/mL were added to aliquots of 50 µL of the peptide solutions and serially diluted with sterilized 0.1% bovine serum albumin in 96-well flat-bottom polystyrene microplates (Eppendorf, Hamburg, Germany). Bacterial cells were incubated for 24 h at 37 °C and 900 rpm on the plate thermoshaker (Biosan, Riga, Latvia). The minimum inhibitory concentrations (MIC) were determined as the lowest peptide concentration that prevented growth of a test microorganism observed as visible turbidity. The results were expressed as median values of three independent triplicated experiments. Assessment of antimicrobial activities of the recombinant PM III, other polyphemusins, and tachyplesins was conducted against Gram-negative (Escherichia coli ML-35p, Klebsiella pneumoniae (clinical isolate, CI 287), Pseudomonas aeruginosa PAO1) and Gram-positive (Staphylococcus aureus ATCC 29213, Staphylococcus aureus 209P, Bacillus subtilis B-886, Micrococcus luteus B-1314) bacteria.
# [2] = system: Caspase cascade pathway in HL-60 cells; assay: Gene expression profiling and Oncobox pathway analysis; type: cell-based, human; details: versus intact cells, Oncobox
# Description: To get a deeper molecular insight into the mechanisms of cell death induced by PM III, we profiled gene expression in the PM III treated (1.25, 2.5, and 5 µM) and intact HL-60 cells. Gene expression profiles were further analyzed using the Oncobox bioinformatical platform to measure activation levels of 376 intracellular signaling pathways. We found a significant inhibition of the Caspase cascade (Figure 6), while the TRAF (tumor necrosis factor receptor (TNF-R)-associated factor) pathway was strongly activated (Figure 7) following the PM III treatment. An additional line of evidence for the non-apoptotic mechanism of the PM III mediated activity was provided by the PTEN pathway. […] The activation levels of all signaling pathways profiled in this study and case-to-normal ratios for the respective genes are shown in Supplementary Table S1. Taken together, these facts rather argue for a non-apoptotic mode of the PM III action.
# RNA extraction was performed immediately before preparation of sequencing libraries using a QIAGEN RNeasy Kit (Qiagen, Venlo, Netherlands) following the manufacturer’s protocol. Then, the RNA Integrity Number (RIN) was measured using an Agilent 2100 bio-Analyzer. Agilent RNA 6000 Nano or Qubit RNA Assay Kits were used to measure RNA concentration. A KAPA RNA Hyper with RiboErase (KAPA Biosystems, Wilmington, MA, USA) kit was used for further depletion of ribosomal RNA. […] Library concentrations and quality were measured using a Qubit ds DNA HS Assay kit (Life Technologies, Carlsbad, CA, USA) and Agilent Tapestation (Agilent, Santa Clara, CA, USA). RNA sequencing was performed using Illumina HiSeq 3000 equipment for single-end sequencing, 50 bp read length, for approximately 30 million raw reads per each sample. […]
# The SABiosciences knowledge base was used to determine structures of intracellular molecular pathways as described previously. […] CNRs were calculated as the ratios of expression levels of a gene in the experimental samples to average expression levels in the control samples. […]
smiles,measurement,setting,value
"CC(C)[C@@H]1NC(=O)[C@H](CCCNC(=N)N)NC(=O)[C@H](Cc2ccccc2)NC(=O)[C@@H](NC(=O)CNC(=O)[C@H](CCCNC(=N)N)NC(=O)[C@@H](N)CCCNC(=N)N)CSSC[C@@H](C(=O)N[C@@H](CCCNC(=N)N)C(=O)O)NC(=O)[C@H](CCCNC(=N)N)NC(=O)[C@H](CCC(N)=O)NC(=O)[C@H](Cc2ccccc2)NC(=O)[C@@H]2CSSC[C@H](NC1=O)C(=O)N[C@@H](Cc1ccc(O)cc1)C(=O)N[C@@H](CCCNC(=N)N)C(=O)NCC(=O)N[C@@H](Cc1ccccc1)C(=O)N2 [PM III, polyphemusin III] (H-RRGCFRVCYRGFCFQRCR-OH; disulfide 4-17, 8-13 (inferred); N-terminus assumed)",LDH-release (cell lysis),HL-60 cells,concentration-dependent lysis
same,"reduction in activity compared to PM I, TP I, and TP III",[1],4 fold
same,Caspase Cascade: PAS (pathway activation strength),"[2]; HL-60, 1.25 μM",-13.08
same,Caspase Cascade: PAS (pathway activation strength),"[2]; HL-60, 2.5 μM",-13.96
same,Caspase Cascade: PAS (pathway activation strength),"[2]; HL-60, 5 μM",-16.64
